The values that follow come from patent publication US12264139B2, “Aryl sulfonamides as BLT1 antagonists” (Merck Sharp & Dohme LLC, priority 2015, dated 2025).

Structures are written as SMILES.

For this assay, the target named is T1, human BLT1 receptor (Homo sapiens, UniProt Q15722).
T1 construct: expressed in transfected cells; host or cells: HEK293
T1 sequence (Q15722 whole entry): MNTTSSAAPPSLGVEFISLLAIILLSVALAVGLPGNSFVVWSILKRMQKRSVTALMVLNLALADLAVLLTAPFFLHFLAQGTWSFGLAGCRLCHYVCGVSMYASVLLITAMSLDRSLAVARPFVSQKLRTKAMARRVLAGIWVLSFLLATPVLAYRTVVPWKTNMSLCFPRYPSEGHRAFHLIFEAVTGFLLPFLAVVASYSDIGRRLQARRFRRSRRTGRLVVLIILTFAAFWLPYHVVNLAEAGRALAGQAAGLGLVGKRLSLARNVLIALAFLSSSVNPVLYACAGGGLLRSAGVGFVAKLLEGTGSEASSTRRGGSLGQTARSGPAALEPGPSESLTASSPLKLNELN
Kind of assay: BLT-1 cAMP Assay. Type of assay: cell-based. The settings on record: HEK293 cells recombinantly expressing human BLT1; antagonist activity vs forskolin 4 μM and LTB4 2 nM; cAMP (CisBio kit). How it is done: The ability of compounds to antagonize the human BLT1 receptor was determined using a kit to measure changes in intracellular cyclic AMP levels (cAMP dynamic assay kit, Cisbio Cat. No. 62AM4PEC). […] The cell suspension was centrifuged at 200×g for 10 min and then resuspended in fresh assay medium to a density of 2.5×10^5 cells/mL. […] All subsequent liquid additions were performed using a BIORAPTR (FRD; Beckman Coulter). Next, 5 μL of cell suspension was added and incubated for 20 min. at 37° C. and 5% CO2 in a humidified plastic tray.
The levels of cAMP were detected using the CisBio kit following the manufacturer's instructions: cAMP-d2 vial was reconstituted with distilled water and then diluted accordingly with conjugate & lysis buffer. 5 µL of cAMP-d2 working solution was added to all of the wells of the assay plate. cAMP-Cryptate vial was reconstituted with distilled water and then diluted accordingly with conjugate & lysis buffer. 5 µL of cAMP-Cryptate working solution were added to the assay plate. The assay plate was shaken for 3 minutes and incubated at room temperature for 45 minutes, then read on Perkin Elmer Envision. cAMP standard curve and fit data were plotted using a 4 parameter dose response curve fitting algorithm to fit curve. […] After normalization to treated and untreated controls, the percent effect of signal at each compound concentration was calculated. The plot of percent effect versus the log of compound concentration was fit with a 4-parameter concentration response equation to calculate EC50 values.
As a reminder, the EC50 is the concentration needed to bring the measured effect to its halfway point. On to `O=S(=O)(Nc1ccccc1-c1ccc2c(c1)OCC(Cc1ccc(-c3ccccc3)s1)C2O)C(F)(F)F` (racemic) [Example 5, 1,1,1-Trifluoro-N-(2-((3,4-rac-trans)-4-hydroxy-3-((5-phenylthiophen-2-yl)methyl)chroman-7-yl)phenyl)methanesulfonamide], for which the EC50 was found to be 9 nM. Then `O=S(=O)(Nc1ccccc1-c1ccc2c(c1)OC[C@H](Cc1ccc(F)cn1)[C@H]2O)C(F)(F)F` (racemic) [Example 29, 1,1,1-Trifluoro-N-(2-((rac-trans)-3-((5-fluoropyridin-2-yl)methyl)-4-hydroxychroman-7-yl)phenyl)methanesulfonamide], with 464 nM. Consider `O=S(=O)(Nc1ccccc1-c1ccc2c(c1)OC[C@@H](Cc1cc[nH]n1)[C@@H]2O)C(F)(F)F` (single isomer, unassigned) [Example 71, 1,1,1-trifluoro-N-{2-[(3,4-trans)-4-hydroxy-3-(1H-pyrazol-3-ylmethyl)-3,4-dihydro-2H-chromen-7-yl]phenyl}-methanesulfonamide], for which the concentration for a half-maximal effect (EC50) was determined as 125 nM.

For `O=S(=O)(Nc1ccccc1-c1ccc2c(c1)OC[C@@H](Cc1cnc(-c3ccccc3)s1)[C@@H]2O)C(F)(F)F` (racemic) [Example 41, 1,1,1-Trifluoro-N-(2-((rac-trans)-4-hydroxy-3-((2-phenylthiazol-5-yl)methyl)chroman-7-yl)phenyl)methanesulfonamide], the EC50 turned out to be 225 nM. Then `CC1(S(=O)(=O)Nc2ccccc2-c2ccc3c(c2)OCC(Cc2ccccn2)C3O)CC1` (single isomer, unassigned) [Example 75, N-(2-((3,4-trans)-4-hydroxy-3-(pyridin-2-ylmethyl)chroman-7-yl)phenyl)-1-methylcyclopropane-1-sulfonamide], with 235 nM. In the case of `O=S(=O)(Nc1ccccc1-c1ccc2c(c1)OC[C@@H](Cc1ncccc1F)[C@@H]2O)C(F)(F)F` (single isomer, unassigned) [Example 69, 1,1,1-Trifluoro-N-(2-{(3,4-trans)-3-[(3-fluoropyridin-2-yl)methyl]-4-hydroxy-3,4-dihydro-2H-chromen-7-yl}phenyl)methanesulfonamide], the EC50 amounted to 30 nM. As to `O=S(=O)(Nc1ccccc1-c1ccc2c(c1)OC[C@H](Cc1cnccn1)[C@H]2O)C(F)(F)F` (racemic) [Example 27, 1,1,1-Trifluoro-N-{2-[(rac-trans)-4-hydroxy-3-(pyrazin-2-ylmethyl)-3,4-dihydro-2H-chromen-7-yl]phenyl}methanesulfonamide], the EC50 is 209 nM.

In the case of `O=S(=O)(Nc1nnc(Cl)cc1-c1ccc2c(c1)OC[C@H](Cc1ccccn1)[C@H]2O)C(F)(F)F` (single isomer, unassigned) [Example 89, N-(6-chloro-4-((3R,4S or 3S,4R)-4-hydroxy-3-(pyridin-2-ylmethyl)chroman-7-yl)pyridazin-3-yl)-1,1,1-trifluoromethanesulfonamide], the EC50 came to 965 nM. For `Cc1cccc(C[C@@H]2COc3cc(-c4ccccc4NS(=O)(=O)C(F)(F)F)ccc3[C@H]2O)n1` (single isomer, unassigned) [Example 63, 1,1,1-Trifluoro-N-(2-{(3,4-trans)-4-hydroxy-3-[(6-methyl-pyridin-2-yl)methyl]-3,4-dihydro-2H-chromen-7-yl}-phenyl)methanesulfonamide] the value was 320 nM; for `O=S(=O)(Nc1ccccc1-c1ccc2c(c1)OC[C@H](Cc1ncco1)[C@H]2O)C(F)(F)F` (racemic) [Example 15, 1,1,1-Trifluoro-N-{2-[(rac-trans)-4-hydroxy-3-(1,3-oxazol-2-ylmethyl)-3,4-dihydro-2H-chromen-7-yl]phenyl}methanesulfonamide], 994 nM.

As to `O=S(=O)(Nc1nnccc1-c1ccc2c(c1)OC[C@@H](Cc1ccccn1)[C@@H]2O)C(F)(F)F` (single isomer, unassigned) [Example 90, N-(4-((3,4-trans)-4-hydroxy-3-(pyridin-2-ylmethyl)chroman-7-yl)pyridazin-3-yl)-1,1,1-trifluoromethanesulfonamide], the 50% effective concentration (EC50) was found to be 3080 nM.
